{"source": "patent US10278941B2", "about": "“Use of 2,5-dihydroxybenzene compounds and derivatives for the treatment of glioma” (AmDerma Pharmaceuticals, LLC, priority 2006, dated 2019)", "key": {"rat glioma C6 cells": {"test_system": "rat glioma C6 cells", "experiment": "Rat glioma C6 cell proliferation, crystal violet staining", "format": "cell-based", "conditions": "48 h", "description": "The cell line used was rat glioma C6 cells. The cells were cultured as previously described (Cuevas P et al. Neurol Res, 2005). The cells were cultured as adherent cells in Dulbecco's modified Eagle's medium, supplemented with 7.5% (v/v) of fetal bovine serum, 10 μg/ml of streptomycin and 10 units/ml of penicillin. The tumor cells were seeded in 24-well plates at a density of 10,000 cells/well, and were incubated at 37° C. in a humidified chamber with 5% CO2. Once adhered, the cells were treated or not (controls) with 2,5-dihydroxybenzoate at 100, 200, 500 or 1000 μM and they were allowed to proliferate for 48 h. After this time the glioma cell proliferation was evaluated by means of staining the fixed cells with crystal violet. The number of cells is proportional to the amount of retained dye, which was spectrophotometrically determined by measuring the absorbance at 595 nm once the dye was extracted from the cells.\nThe cell line used was the C6 cell line and the experiment was carried out as described in Example 2. Once adhered, the cells were treated or not (controls) with increasing concentrations of 2,5-DHC (10, 25, 50 and 100 μM) and they were allowed to proliferate for 48 h. After this time the glioma cell proliferation was evaluated by means of staining the fixed cells with crystal violet. The number of cells is proportional to the amount of retained dye, which was determined spectrophotometrically by measuring absorbance at 595 nm once the dye was extracted from the cells.\nThe cell line used was the C6 cell line and the experiment was carried out as described in examples 2 and 3. Once adhered, the cells were treated or not (controls) with (5A-2HBS) (500 μM) or (2A-5HBS) (500 μM) and they were allowed to proliferate for 48 h. After this time the glioma cell proliferation was evaluated by means of staining the fixed cells with crystal violet. The number of cells is proportional to the amount of retained dye, which was determined spectrophotometrically by measuring the absorbance at 595 nm once the dye was extracted from the cells."}, "bFGF-induced fibrosis": {"test_system": "bFGF-induced fibrosis", "experiment": "bFGF-induced fibrosis, subcutaneous gelatin sponge implant", "format": "in vivo, Sprague-Dawley rats", "conditions": "sponge with bFGF plus compound 100 μM, 7 days", "description": "Sterile gelatin sponges (1 mm^3; Curaspon Dental, Clinimed Holding, Zwanenburg, The Netherlands) were subcutaneously implanted in the dorsal region of the neck in Sprague-Dawley rats after the induction of intraperitoneal anesthesia. The animals were split into two groups: group A, the sponges were moistened with 200 μl of saline solution which contained 25 μg/ml of heparin and 10 μg/ml of basic FGF (bFGF); group B, the sponges were moistened in the same solution as in group A, but which solution further contained 2,5-dihydroxybenzoate (100 μM). After 7 days, the sponges and the surrounding subcutaneous fat were removed and histologically analyzed."}, "[1]": {"biological_target": "T1, Fibroblast Growth Factor-1 (FGF-1) (Homo sapiens, UniProt P05230)", "T1 sequence (P05230 whole entry, species assumed)": "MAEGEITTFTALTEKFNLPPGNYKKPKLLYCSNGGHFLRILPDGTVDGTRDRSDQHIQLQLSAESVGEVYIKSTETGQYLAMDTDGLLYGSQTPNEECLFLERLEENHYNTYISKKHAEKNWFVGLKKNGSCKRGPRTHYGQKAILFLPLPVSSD", "experiment": "Crystal diffraction of FGF-1:compound complexes", "format": "binding", "conditions": "acetoxyl groups conserved when bound", "description": "Based on the crystal diffraction of the FGF-1:2-acetoxy-5-hydroxybenzene sulfonic acid, FGF-1:5-acetoxy-2-hydroxybenzene sulfonic acid and FGF-1:2,5-diacetoxybenzene sulfonic acid complexes, the structures of the complexes were calculated and represented. FIGS. 13, 14 and 15, which show the surface of the dyed protein according to its electrostatic potential (light grey, negative charge; dark grey, positive charge; white, regions with no charge), show the manner in which 2-acetoxy-5-hydroxybenzene sulfonic acid, 5-acetoxy-2-hydroxybenzene sulfonic acid and 2,5-diacetoxybenzene sulfonic acid interact, respectively, with FGF-1."}, "[2]": {"test_system": "subcutaneous gliomas (rat glioma C6 cells)", "experiment": "Progression of established subcutaneous C6 gliomas in rats", "format": "in vivo", "conditions": "for average size (volume) of the subcutaneous gliomas: vs carrier", "description": "Rat C6 glioma cells were cultured as previously described (Cuevas P et al. Neurol Res, 2005). The C6 cells cultured to confluence in 75 cm^2 flasks were removed and implanted under the abdominal skin in anesthetized rats. The existence of a tumor in the implantation area was observed five days after the implantation of the tumor cells. Only the rats in which the existence of a tumor was observed were randomly assigned to be treated with daily intraperitoneal injections of 2,5-dihydroxybenzene sulfonate (DHBS; 100 mg/kg/day), 2,5-diacetoxybenzene sulfonate (DABS; 100 mg/kg/day) or the carrier (0.9% NaCl). After 10 days of treatment, the subcutaneous gliomas were removed and their volume was calculated according to the formula V=4/3π·(L/2)·(A/2)^2 (in mm^3) where L is the larger diameter and A is the smaller diameter, both expressed in mm.\nTumor cells elude the programmed cell death process or apoptosis that normal cells experience. Apoptosis induction in tumor cells is one way to confront the development of a tumor. To evaluate the effect of potassium 2,5-dihydroxybenzene sulfonate […] on tumor cell apoptosis, 6 μm thick sections of the subcutaneous gliomas described in example 4 were made. The sections were stained with hematoxylin and eosin and observed at a magnification of 313 times using immersion oil. In these conditions, cell apoptosis is shown by the existence of apoptotic bodies appearing as strongly chromogenic granules in the cell nucleus which is frequently fragmented."}, "[3]": {"test_system": "human prostate cancer PC-3 cells", "experiment": "Human tumor cell proliferation, XTT viability method, PC-3", "format": "cell-based", "conditions": "1-200 μM, 96 h", "description": "(§1) The cell lines used were the human prostate cancer PC-3 cells and human lung cancer A549 cells. 2000 cells were seeded per well in 96-well plates and they were allowed to adhere overnight. Then the cells were treated or not (controls) with potassium 2,5-diacetoxybenzene sulfonate (DABS) (1-200 μM) and they were allowed to proliferate for 96 h. After this time, the PC-3 and A549 cell proliferation was evaluated by determining the final number of cells by means of the viability method of yellow tetrazolium salt (XTT). The data were expressed as a percentage of the control (without treatment)."}, "[4]": {"test_system": "human lung cancer A549 cells", "experiment": "Human tumor cell proliferation, XTT viability method, A549", "format": "cell-based", "conditions": "1-200 μM, 96 h", "description": "as §1"}, "[5]": {"test_system": "human prostate cancer PC-3 cells", "experiment": "Subcutaneous PC-3 tumor progression in athymic mice", "format": "in vivo, athymic mice (Nu/Nu)", "conditions": "100 mg/kg daily i.p., 15 days", "description": "5×10^6 human prostate cancer PC-3 cells were subcutaneously injected in male athymic mice (Nu/Nu) of 6-8 weeks of age and weighing 20-26 g. Ten days after the implantation of the tumor cells, the mice were randomly split into two groups: one of them received a daily injection of potassium 2,5-diacetoxybenzene sulfonate (DABS) by intraperitoneal route at a dose of 100 mg/kg dissolved in saline (0.9% NaCl) whereas the other group received a daily injection of carrier (saline). The treatments were administered for 15 days. The volumes of the tumors induced by the implantation of PC-3 cells were measured through the skin on alternating days using a Vernier caliper. The volume was calculated using the formula V=(D×2d)/2, where D is the larger diameter in mm, d is the smaller diameter in mm and V is the volume in mm3. At the end of treatment, the mice were sacrificed and the tumors were weighed."}, "[6]": {"biological_target": "T1, Fibroblast Growth Factor-1 (FGF-1)", "experiment": "FGF-1-induced mitogenesis in quiescent Balb/c 3T3 fibroblast cultures", "format": "cell-based", "conditions": "quiescent Balb/c 3T3 fibroblasts", "description": "The evaluated compounds were used in the form of potassium salt, except in the first case which used calcium salt. The experiments were carried out as described in Fernandez-Tornero C et al. J Biol Chem, 2003."}}, "data": [{"smiles": "O=C(O)C=Cc1cc(O)ccc1O", "note": "[2,5-DHC, 3-(2,5-dihydroxyphenyl)-2-propenoic acid]", "values": [{"measurement": "C6 cell proliferation", "setting": "rat glioma C6 cells; 50 μM", "result": "reduced the C6 cell proliferation to less than half"}, {"measurement": "C6 cell proliferation", "setting": "rat glioma C6 cells; 100 μM", "result": "proliferation was reduced to one tenth"}]}, {"smiles": "O=C([O-])c1cc(O)ccc1O.[K+]", "note": "[2,5-dihydroxybenzoate, potassium 2,5-dihydroxybenzoate]", "values": [{"measurement": "bFGF-induced fibrosis (fibroblasts in septa of connective tissue of adipose tissue)", "setting": "bFGF-induced fibrosis", "result": "reduces bFGF-induced fibrosis"}, {"measurement": "rat glioma C6 cell proliferation (absorbance at 595 nm)", "setting": "rat glioma C6 cells; 100, 200, 500 or 1000 μM", "result": "inhibited rat glioma C6 cell proliferation in a concentration-dependent manner, an effect which was statistically significant at the concentrations of 500 and 1000 μM"}]}, {"smiles": "CC(=O)Oc1ccc(O)cc1S(=O)(=O)[O-].[K+]", "note": "[2A-5HBS, potassium 2-acetoxy-5-hydroxybenzene sulfonate]", "values": [{"measurement": "structural interaction with FGF-1 (binding site in co-crystal)", "setting": "[1]", "result": "occupy a site that is very close to the one that has been described occupied by 2,5-dihydroxybenzene sulfonic acid"}]}, {"smiles": "CC(=O)Oc1ccc(O)c(S(=O)(=O)[O-])c1.[K+]", "note": "[5A-2HBS, potassium 5-acetoxy-2-hydroxybenzene sulfonate]", "values": [{"measurement": "structural interaction with FGF-1 (binding site in co-crystal)", "setting": "[1]", "result": "occupy a site that is very close to the one that has been described occupied by 2,5-dihydroxybenzene sulfonic acid"}]}, {"smiles": "CC(=O)Oc1ccc(OC(C)=O)c(S(=O)(=O)[O-])c1.[K+]", "note": "[DABS, potassium 2,5-diacetoxybenzene sulfonate]", "values": [{"measurement": "tumor cell apoptosis in subcutaneous glioma sections (hematoxylin and eosin)", "setting": "[2]; 100 mg/kg/day i.p., 10 days", "result": "a large number of tumor cells in apoptosis can be observed"}, {"measurement": "probability of being tumor-free (χ2 test)", "setting": "[2]; DABS group vs DHBS group, 100 mg/kg/day", "result": "greater probability of being tumor-free"}, {"measurement": "average size (volume) of the subcutaneous gliomas", "setting": "[2]; i.p. 100 mg/kg/day, 10 days", "result": "this average volume was even less"}, {"measurement": "rats tumor-free when treatment ended", "setting": "[2]; i.p. 100 mg/kg/day, 10 days, all rats had established tumors prior to treatment", "result": 4, "unit": "rats"}, {"measurement": "PC-3 cell proliferation (percentage of control)", "setting": "[3]", "result": "caused a significant inhibition"}, {"measurement": "structural interaction with FGF-1 (binding site in co-crystal)", "setting": "[1]", "result": "occupy a site that is very close to the one that has been described occupied by 2,5-dihydroxybenzene sulfonic acid"}, {"measurement": "A549 cell proliferation (percentage of control)", "setting": "[4]", "result": "caused a significant inhibition"}, {"measurement": "tumor growth (tumor volume)", "setting": "[5]", "result": "significantly reduced the human prostate cell tumor growth"}, {"measurement": "weight of the extracted tumor when treatment ended", "setting": "[5]", "result": "significant reduction of the weight of the extracted tumor"}]}, {"smiles": "O=S(=O)([O-])c1cc(O)ccc1O.[K+]", "note": "[DHBS, potassium 2,5-dihydroxybenzene sulfonate, reference compound]", "values": [{"measurement": "average size (volume) of the subcutaneous gliomas", "setting": "[2]; i.p. 100 mg/kg/day, 10 days", "result": "less than that of the rats treated with carrier"}, {"measurement": "inhibition of mitogenesis induced by FGF-1", "setting": "[6]", "result": "inhibition of the mitogenesis induced by fibroblast growth factor 1"}]}]}
